{
  "source": "patent US7253155B2",
  "about": "“Combinations for the treatment of immunoinflammatory disorders” (CombinatoRx, Inc., priority 2001, dated 2007)",
  "tested_on": "TNFα secretion",
  "assay": "TNFα ELISA assay for TNFα suppressing activity in PMA/ionomycin-stimulated human white blood cells (pairwise combination dilution matrix)",
  "assay_type": "cell-based",
  "method": "Stock solutions at 16 mg/ml of dipyridamole, and 1.6 mg/ml of fludrocortisone acetate (Sigma-Aldrich, St. Louis, Mo.; catalog numbers D9766 and F6127, respectively) were made in dimethylsulfoxide (DMSO). The dipyridamole master plates were made by adding 25 μl of the concentrated stock solution to columns 3, 9, and 15 (rows C through N) of a polypropylene 384-well storage plate that had been pre-filled with 75 μl of anhydrous DMSO. Using a TomTec Quadra Plus liquid handler, the 25 μl of dipyridamole stock solution was serially diluted four times into the adjacent columns (columns 4-7, 10-13, 16-19). […] The fludrocortisone master plates were made by adding 25 μl of the concentrated stock solution to the appropriate wells (row C, columns 3-8; row C, columns 9-14; row C, columns 15-20; row I, columns 3-8; row I, columns 9-14; row I, columns 15-20) of the appropriate master polypropylene 384-well storage plate. These master plates had been pre-filled with 75 μl of anhydrous DMSO. Using the TomTec Quadra Plus liquid handler, the 25 μl was serially diluted four times in the adjacent rows (rows D-G, and J-M). […] Master plates were sealed and stored at −20 C. until ready for use.\nThe final dipyridamole/fludrocortisone combination plates were generated by transferring 1 μl from each of the dipyridamole and fludrocortisone master plates to a dilution plate containing 100 μl of media (RPMI; Gibco BRL, #11875-085), 10% Fetal Bovine Serum (Gibco BRL, #25140-097), 2% Penicillin/Streptomycin (Gibco BRL, #15140-122)) using the TomTec Quadra Plus liquid handler. This dilution plate was then mixed and a 10 μl aliquot transferred to the final assay plate, which had been pre-filled with 40 μl/well RPMI media containing the appropriate stimulant to activate TNFα secretion (see below).\nThe compound dilution matrix was assayed using a TNFα ELISA method. Briefly, a 100 μl suspension of diluted human white blood cells contained within each well of a polystyrene 384-well plate (NalgeNunc) was stimulated to secrete TNFα by treatment with a final concentration of 10 ng/ml phorbol 12-myristate 13-acetate (Sigma) and […] ionomycin (Sigma). Various concentrations of each test compound were added at the time of stimulation. After 16-18 hours of incubation at 37° C. in a humidified incubator, the plate was centrifuged and the supernatant transferred to a white opaque polystyrene 384 well plate (NalgeNunc, Maxisorb) coated with an anti-TNF antibody (PharMingen, #18631D). After a two-hour incubation, the plate was washed (Tecan PowerWasher 384) with phosphate buffered saline (PBS) containing 0.1% Tween 20 (polyoxyethylene sorbitan monolaurate) and incubated for an additional one hour with another anti-TNF antibody that was biotin labeled (PharMingen, 18642D) and horseradish peroxidase (HRP) coupled to strepavidin (PharMingen, #13047E). After the plate was washed with 0.1% Tween 20/PBS, the HRP substrate (which contains luminol, hydrogen peroxide, and an enhancer such as para-iodophenol) was added to each well and light intensity measured using a LJL Analyst luminometer. Control wells contained a final concentration of 1 μg/ml cyclosporin A (Sigma).\nA compound matrix of dipyridamole and prednisolone were prepared according to the method of Example 1. The initial stock solution of dipyridamole was 16 mg/ml, and prednisolone was 1.6 mg/ml.\nThe compound dilution matrix of Example 3, was assayed using the TNFα ELISA method of Example 2.",
  "note": "“And” between values parts separate entries of the source, which are not always exact repeats. Equal entries are not always repeated.",
  "data": [
    {"smiles": "OCCN(CCO)c1nc(N2CCCCC2)c2nc(N(CCO)CCO)nc(N3CCCCC3)c2n1", "note": "[Dipyridamole, 2,6-bis(diethanolamino)-4,8-dipiperidinopyrimido(5,4-d)pyrimidine]", "values": [
      {"measurement": "% TNFα suppression from P/I-induced white blood cells", "setting": "primary screen, fludrocortisone 0.000 μM, dipyridamole 0.031 μM", "value": 3.68, "unit": "%"},
      {"measurement": "% TNFα suppression from P/I-induced white blood cells", "setting": "primary screen, fludrocortisone 0.000 μM, dipyridamole 0.124 μM", "value": 9.08, "unit": "%"},
      {"measurement": "% TNFα suppression from P/I-induced white blood cells", "setting": "primary screen, fludrocortisone 0.000 μM, dipyridamole 0.495 μM", "value": 13.21, "unit": "%"},
      {"measurement": "% TNFα suppression from P/I-induced white blood cells", "setting": "primary screen, fludrocortisone 0.000 μM, dipyridamole 1.982 μM", "value": 35.24, "unit": "%"},
      {"measurement": "% TNFα suppression from P/I-induced white blood cells", "setting": "primary screen, fludrocortisone 0.000 μM, dipyridamole 7.927 μM", "value": 66.37, "unit": "%"},
      {"measurement": "% TNFα suppression from P/I-induced white blood cells", "setting": "primary screen, prednisolone 0.000 μM, dipyridamole 0.031 μM", "value": 11.24, "unit": "%"},
      {"measurement": "% TNFα suppression from P/I-induced white blood cells", "setting": "primary screen, prednisolone 0.000 μM, dipyridamole 0.12 μM", "value": 12.63, "unit": "%"},
      {"measurement": "% TNFα suppression from P/I-induced white blood cells", "setting": "primary screen, prednisolone 0.000 μM, dipyridamole 0.50 μM", "value": 18.30, "unit": "%"},
      {"measurement": "% TNFα suppression from P/I-induced white blood cells", "setting": "primary screen, prednisolone 0.000 μM, dipyridamole 1.98 μM", "value": 27.21, "unit": "%"},
      {"measurement": "% TNFα suppression from P/I-induced white blood cells", "setting": "primary screen, prednisolone 0.000 μM, dipyridamole 7.93 μM", "value": 47.51, "unit": "%"},
      {"measurement": "% TNFα suppression from P/I-induced white blood cells", "setting": "secondary screen, fludrocortisone 0.000 μM, dipyridamole 0.031 μM", "value": 10.16, "unit": "%"},
      {"measurement": "% TNFα suppression from P/I-induced white blood cells", "setting": "secondary screen, fludrocortisone 0.000 μM, dipyridamole 0.062 μM", "value": 9.43, "unit": "%"},
      {"measurement": "% TNFα suppression from P/I-induced white blood cells", "setting": "secondary screen, fludrocortisone 0.000 μM, dipyridamole 0.124 μM", "value": 12.13, "unit": "%"},
      {"measurement": "% TNFα suppression from P/I-induced white blood cells", "setting": "secondary screen, fludrocortisone 0.000 μM, dipyridamole 0.248 μM", "value": 23.02, "unit": "%"},
      {"measurement": "% TNFα suppression from P/I-induced white blood cells", "setting": "secondary screen, fludrocortisone 0.000 μM, dipyridamole 0.495 μM", "value": 33.73, "unit": "%"},
      {"measurement": "% TNFα suppression from P/I-induced white blood cells", "setting": "secondary screen, fludrocortisone 0.000 μM, dipyridamole 0.991 μM", "value": 48.20, "unit": "%"},
      {"measurement": "% TNFα suppression from P/I-induced white blood cells", "setting": "secondary screen, fludrocortisone 0.000 μM, dipyridamole 1.982 μM", "value": 62.36, "unit": "%"},
      {"measurement": "% TNFα suppression from P/I-induced white blood cells", "setting": "secondary screen, fludrocortisone 0.000 μM, dipyridamole 3.964 μM", "value": 66.54, "unit": "%"},
      {"measurement": "% TNFα suppression from P/I-induced white blood cells", "setting": "secondary screen, fludrocortisone 0.000 μM, dipyridamole 7.927 μM", "value": 78.11, "unit": "%"}
    ]},
    {"smiles": "C[C@]12C=CC(=O)C=C1CC[C@@H]1[C@@H]2[C@@H](O)C[C@@]2(C)[C@H]1CC[C@]2(O)C(=O)CO", "note": "[Prednisolone, 11beta,17alpha,21-trihydroxy-1,4-pregnadiene-3,20-dione]", "values": [
      {"measurement": "% TNFα suppression from P/I-induced white blood cells", "setting": "primary screen, prednisolone 0.001 μM, dipyridamole 0.00 μM", "value": 4.86, "unit": "%"},
      {"measurement": "% TNFα suppression from P/I-induced white blood cells", "setting": "primary screen, prednisolone 0.004 μM, dipyridamole 0.00 μM", "value": 19.99, "unit": "%"},
      {"measurement": "% TNFα suppression from P/I-induced white blood cells", "setting": "primary screen, prednisolone 0.016 μM, dipyridamole 0.00 μM", "value": 37.84, "unit": "%"},
      {"measurement": "% TNFα suppression from P/I-induced white blood cells", "setting": "primary screen, prednisolone 0.063 μM, dipyridamole 0.00 μM", "value": 33.00, "unit": "%"},
      {"measurement": "% TNFα suppression from P/I-induced white blood cells", "setting": "primary screen, prednisolone 0.250 μM, dipyridamole 0.00 μM", "value": "38% and 38.25%"}
    ]}
  ]
}
